The results in this text go back to ChEMBL document CHEMBL4613209, “Quinolone hybrids and their anti-cancer activities: An overview” (Eur J Med Chem, 2019).

The first assay deals with L1210. Description: Antiproliferative activity against mouse L1210 cells after 24 to 72 hrs by MTT assay. It counts as functional, cell-based. On the technique in general: Tetrazolium assays rely on reduction of a dye to a coloured formazan, in cell work by metabolically active cells.
As to `CCn1cc(-c2nnc(SCC(=O)N/N=C/c3ccc(Cl)cc3)o2)c(=O)c2cc(F)c(N3CCN(C)CC3)cc21`, the IC50 (usually the concentration that inhibits the measured activity by half) fell in the range of 1400 to 52300 nM.
The same measure, in the same setting: the same measure for `CCn1cc(-c2nnc(SCC(=O)N/N=C/c3ccc4c(c3)OCO4)o2)c(=O)c2cc(F)c(N3CCN(C)CC3)cc21`: 1400 to 52300 nM; for `CC1COc2c(N3CCN(C)CC3)c(F)cc3c(=O)c(-c4nnc(N/N=C/c5ccccc5)[nH]4)cn1c23` (configuration not stated): 1400 to 52300 nM.
Turning to `CCn1cc(C(=O)N/N=C/c2ccccc2)c(=O)c2cc(F)c(N3CCNCC3)cc21`, the IC50 was in the range of 1400 to 52300 nM.
The same measure, in the same setting: the same measure for `CCn1cc(C(=O)N/N=C/c2cc(OC)c(OC)c(OC)c2)c(=O)c2cc(F)c(N3CCNCC3)cc21`: 1400 to 52300 nM.
Same read-out and setting: the same measure for `CC1COc2c(N3CCN(C)CC3)c(F)cc3c(=O)c(-c4nnc(N/N=C/c5ccc(C(=O)O)cc5)[nH]4)cn1c23` (configuration not stated): 1600 nM.
`CC1COc2c(N3CCN(C)CC3)c(F)cc3c(=O)c(-c4nnc(SCC(=O)N/N=C/c5ccc(Cl)cc5)[nH]4)cn1c23` (configuration not stated) came in with an IC50 of 1400 to 52300 nM.
Regarding `CC1COc2c(N3CCN(C)CC3)c(F)cc3c(=O)c(-c4nnc(N/N=C/c5ccc(F)cc5)[nH]4)cn1c23` (configuration not stated), the IC50 fell in the range of 1400 to 52300 nM.

A further assay concerns Hep 3B2. Description: Antiproliferative activity against human Hep3B cells after 24 to 72 hrs by MTT assay. The assay is classed as functional, cell-based.
In turn, `CCn1cc(-c2nnc(SCC(=O)N/N=C/c3ccc(Cl)cc3)o2)c(=O)c2cc(F)c(N3CCN(C)CC3)cc21` had an IC50 of 1400 to 52300 nM.
On the same count and under the same terms, the same measure for `CCn1cc(-c2nnc(SCC(=O)N/N=C/c3ccc4c(c3)OCO4)o2)c(=O)c2cc(F)c(N3CCN(C)CC3)cc21`: 1400 to 52300 nM; for `CC1COc2c(N3CCN(C)CC3)c(F)cc3c(=O)c(-c4nnc(N/N=C/c5ccccc5)[nH]4)cn1c23` (configuration not stated): 1400 to 52300 nM.
In turn, `CCn1cc(C(=O)N/N=C/c2ccccc2)c(=O)c2cc(F)c(N3CCNCC3)cc21` yielded an IC50 of 1400 to 52300 nM.
Take `CCn1cc(C(=O)N/N=C/c2cc(OC)c(OC)c(OC)c2)c(=O)c2cc(F)c(N3CCNCC3)cc21`: the IC50 fell in the range of 1400 to 52300 nM.
Turning to `CC1COc2c(N3CCN(C)CC3)c(F)cc3c(=O)c(-c4nnc(N/N=C/c5ccc(C(=O)O)cc5)[nH]4)cn1c23` (configuration not stated), the IC50 is 1400 to 52300 nM.
`CC1COc2c(N3CCN(C)CC3)c(F)cc3c(=O)c(-c4nnc(SCC(=O)N/N=C/c5ccc(Cl)cc5)[nH]4)cn1c23` (configuration not stated) showed an IC50 of 1400 to 52300 nM.
Same read-out and setting: the same measure for `CC1COc2c(N3CCN(C)CC3)c(F)cc3c(=O)c(-c4nnc(N/N=C/c5ccc(F)cc5)[nH]4)cn1c23` (configuration not stated): 1400 to 52300 nM.

The test system of another assay is SMMC-7721. Description: Antiproliferative activity against human SMMC7721 cells after 24 to 72 hrs by MTT assay. It counts as functional, cell-based.
`CCn1cc(-c2nnc(SCC(=O)N/N=C/c3ccc(Cl)cc3)o2)c(=O)c2cc(F)c(N3CCN(C)CC3)cc21` gave an IC50 of 1400 to 52300 nM.
Same read-out and setting: the same measure for `CCn1cc(-c2nnc(SCC(=O)N/N=C/c3ccc4c(c3)OCO4)o2)c(=O)c2cc(F)c(N3CCN(C)CC3)cc21`: 1400 to 52300 nM; for `CC1COc2c(N3CCN(C)CC3)c(F)cc3c(=O)c(-c4nnc(N/N=C/c5ccccc5)[nH]4)cn1c23` (configuration not stated): 1400 to 52300 nM; for `CCn1cc(C(=O)N/N=C/c2ccccc2)c(=O)c2cc(F)c(N3CCNCC3)cc21`: 1400 to 52300 nM.
On the same count and under the same terms, the same measure for `CCn1cc(C(=O)N/N=C/c2cc(OC)c(OC)c(OC)c2)c(=O)c2cc(F)c(N3CCNCC3)cc21`: 1400 to 52300 nM; for `CC1COc2c(N3CCN(C)CC3)c(F)cc3c(=O)c(-c4nnc(N/N=C/c5ccc(C(=O)O)cc5)[nH]4)cn1c23` (configuration not stated): 1400 nM.
Same read-out and setting: the same measure for `CC1COc2c(N3CCN(C)CC3)c(F)cc3c(=O)c(-c4nnc(SCC(=O)N/N=C/c5ccc(Cl)cc5)[nH]4)cn1c23` (configuration not stated): 1400 to 52300 nM; for `CC1COc2c(N3CCN(C)CC3)c(F)cc3c(=O)c(-c4nnc(N/N=C/c5ccc(F)cc5)[nH]4)cn1c23` (configuration not stated): 1400 to 52300 nM.

The subject of the next assay is HL-60. Description: Antiproliferative activity against human HL60 cells after 24 to 72 hrs by MTT assay. The assay is classed as functional, cell-based.
Compound `CCn1cc(-c2nnc(SCC(=O)N/N=C/c3ccc(Cl)cc3)o2)c(=O)c2cc(F)c(N3CCN(C)CC3)cc21` returned an IC50 of 1400 to 52300 nM.
Regarding `CCn1cc(-c2nnc(SCC(=O)N/N=C/c3ccc4c(c3)OCO4)o2)c(=O)c2cc(F)c(N3CCN(C)CC3)cc21`, the IC50 is 1400 to 52300 nM.
The same measure, in the same setting: the same measure for `CC1COc2c(N3CCN(C)CC3)c(F)cc3c(=O)c(-c4nnc(N/N=C/c5ccccc5)[nH]4)cn1c23` (configuration not stated): 1400 to 52300 nM.
Still for that read-out and setting: the same measure for `CCn1cc(C(=O)N/N=C/c2ccccc2)c(=O)c2cc(F)c(N3CCNCC3)cc21`: 1400 to 52300 nM; for `CCn1cc(C(=O)N/N=C/c2cc(OC)c(OC)c(OC)c2)c(=O)c2cc(F)c(N3CCNCC3)cc21`: 1400 to 52300 nM.
Same read-out and setting: the same measure for `CC1COc2c(N3CCN(C)CC3)c(F)cc3c(=O)c(-c4nnc(N/N=C/c5ccc(C(=O)O)cc5)[nH]4)cn1c23` (configuration not stated): 4200 nM.
Take `CC1COc2c(N3CCN(C)CC3)c(F)cc3c(=O)c(-c4nnc(SCC(=O)N/N=C/c5ccc(Cl)cc5)[nH]4)cn1c23` (configuration not stated): the IC50 was 1400 to 52300 nM.
Same read-out and setting: the same measure for `CC1COc2c(N3CCN(C)CC3)c(F)cc3c(=O)c(-c4nnc(N/N=C/c5ccc(F)cc5)[nH]4)cn1c23` (configuration not stated): 1400 to 52300 nM.
